Measured values: US20250136586A1, “Substituted 7-(Pyrimidin-4-yl)Quinolin-4(1H)-One Compounds as Cyclin Dependent Kinase Inhibitors” (BeiGene, Ltd., priority 2022, published 2025)

What was measured:
CDK4/Cyclin D1 = CDK4/Cyclin D1 (Homo sapiens (Human), UniProt P11802); assay: TR-FRET kinase inhibition assay, CDK4/Cyclin D1; format: biochemical; settings: 1 mM ATP, 0.15 μM Rb (Ser780)-biotin substrate, read-out: CDK4D1 IC50
Description: Compounds disclosed herein were tested for inhibition of CDK4/Cyclin D1 or CDK6/Cyclin D3 kinase in an assay based on the time-resolved fluorescence-resonance energy transfer (TR-FRET) methodology. […] The kinase was incubated with compound for 60 minutes at room temperature and the reaction was initiated by the addition of ATP and Rb (Ser780)-biotin substrate. After reaction at room temperature for 120 minutes, an equal volume of stop/detection solution was added according to the manufacture's instruction (Cisbio Bioassays). The stop/detection solution contained Streptavidin-XL665 and Anti-pRb (Ser780) mAb-Eu Cryptate in Detection buffer (Cisbio Bioassays). […] The inhibition percentage of CDK4/Cyclin D1 or CDK6/Cyclin D3 kinase activity in presence of increasing concentrations of compounds was calculated based on the ratio of fluorescence at 665 nm to that at 620 nm. The IC50 for each compound was derived from fitting the data to the four-parameter logistic equation by Dotmatics.

CDK6/Cyclin D3 = CDK6/Cyclin D3 (Homo sapiens (Human), UniProt Q00534); assay: TR-FRET kinase inhibition assay, CDK6/Cyclin D3; format: biochemical; settings: 1 mM ATP, 0.15 μM Rb (Ser780)-biotin substrate, read-out: CDK6D3 IC50
Sequence of CDK6/Cyclin D3 (Q00534 whole entry): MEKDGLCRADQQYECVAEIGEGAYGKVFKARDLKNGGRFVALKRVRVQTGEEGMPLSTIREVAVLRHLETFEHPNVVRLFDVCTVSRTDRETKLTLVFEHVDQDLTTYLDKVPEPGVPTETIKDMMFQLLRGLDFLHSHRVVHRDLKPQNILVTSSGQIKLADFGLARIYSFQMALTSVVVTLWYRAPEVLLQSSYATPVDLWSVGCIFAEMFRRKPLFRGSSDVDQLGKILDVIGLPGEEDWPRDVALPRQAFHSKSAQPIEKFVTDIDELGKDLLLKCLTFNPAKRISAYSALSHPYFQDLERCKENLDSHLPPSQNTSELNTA
Sequence of CDK6/Cyclin D3 (P30281 whole entry partner): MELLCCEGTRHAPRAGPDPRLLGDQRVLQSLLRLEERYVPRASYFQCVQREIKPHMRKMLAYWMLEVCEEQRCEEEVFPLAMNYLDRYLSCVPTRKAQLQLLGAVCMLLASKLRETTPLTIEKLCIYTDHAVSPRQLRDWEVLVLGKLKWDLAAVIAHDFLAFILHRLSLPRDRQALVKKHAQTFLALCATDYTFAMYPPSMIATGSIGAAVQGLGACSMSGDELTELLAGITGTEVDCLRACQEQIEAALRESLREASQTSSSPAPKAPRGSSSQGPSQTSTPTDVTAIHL
Description: Compounds disclosed herein were tested for inhibition of CDK4/Cyclin D1 or CDK6/Cyclin D3 kinase in an assay based on the time-resolved fluorescence-resonance energy transfer (TR-FRET) methodology. The assay was carried out in 384-well low volume black plates in a reaction mixture containing CDK4/Cyclin D1 or CDK6/Cyclin D3, 1 mM ATP, 0.15 μM Rb (Ser780)-biotin substrate and 0-10 μM compound in buffer containing 50 mM HEPES pH7.0, 0.02% NaN3, 0.01% BSA, 0.1 mM Orthovanadate, 50 mM MgCl2, 1 mM DTT and 0.005% Tween-20. The kinase was incubated with compound for 60 minutes at room temperature and the reaction was initiated by the addition of ATP and Rb (Ser780)-biotin substrate. After reaction at room temperature for 120 minutes, an equal volume of stop/detection solution was added according to the manufacture's instruction (Cisbio Bioassays). The stop/detection solution contained Streptavidin-XL665 and Anti-pRb (Ser780) mAb-Eu Cryptate in Detection buffer (Cisbio Bioassays). Plates were incubated at room temperature for 60 minutes, and the TR-FRET signals (ex337 nm, em665 nm/620 nm) were recorded on a PHERAstar FSX plate reader (BMG Labtech). The inhibition percentage of CDK4/Cyclin D1 or CDK6/Cyclin D3 kinase activity in presence of increasing concentrations of compounds was calculated based on the ratio of fluorescence at 665 nm to that at 620 nm. The IC50 for each compound was derived from fitting the data to the four-parameter logistic equation by Dotmatics.

Sequence of CDK4/Cyclin D1 (P11802 whole entry): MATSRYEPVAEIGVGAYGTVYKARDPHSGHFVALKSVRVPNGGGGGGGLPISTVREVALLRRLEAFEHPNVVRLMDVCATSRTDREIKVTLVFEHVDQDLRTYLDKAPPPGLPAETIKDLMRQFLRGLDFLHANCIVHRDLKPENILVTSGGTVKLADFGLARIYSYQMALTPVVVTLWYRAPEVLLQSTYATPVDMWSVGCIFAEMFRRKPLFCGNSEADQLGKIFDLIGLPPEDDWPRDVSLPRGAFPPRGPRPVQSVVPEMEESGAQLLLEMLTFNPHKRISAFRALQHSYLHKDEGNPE
Sequence of CDK4/Cyclin D1 (P24385 whole entry partner): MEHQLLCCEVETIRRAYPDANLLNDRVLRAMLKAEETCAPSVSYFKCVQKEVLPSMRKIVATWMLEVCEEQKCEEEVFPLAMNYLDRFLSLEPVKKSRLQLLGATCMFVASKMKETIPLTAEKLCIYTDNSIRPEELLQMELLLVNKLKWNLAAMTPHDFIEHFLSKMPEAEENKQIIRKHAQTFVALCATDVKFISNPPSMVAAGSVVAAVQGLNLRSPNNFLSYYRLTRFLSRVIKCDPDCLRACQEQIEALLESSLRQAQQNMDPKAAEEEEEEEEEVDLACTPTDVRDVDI

| IC50 (CDK4/Cyclin D1) | IC50 (CDK6/Cyclin D3) | SMILES |
| --- | --- | --- |
| 24 nM | 1300 nM | CC(C)n1c(CN2C[C@H]3COC[C@H]3C2)cc(=O)c2ccc(-c3nc(N[C@@H]4CCOC[C@H]4O)ncc3F)cc21 [Example 41, 7-(5-fluoro-2-(((3S,4R)-3-hydroxytetrahydro-2H-pyran-4-yl)amino)pyrimidin-4-yl)-1-isopropyl-2-(((3aR,6aS)-tetrahydro-1H-furo[3,4-c]pyrrol-5(3H)-yl)methyl)quinolin-4(1H)-one] |
| 25 nM | 1300 nM | CC(C)n1c(CN2CC3CC2C3)cc(=O)c2ccc(-c3nc(N[C@@H]4CCOC[C@H]4O)ncc3F)cc21 [Example 43, 2-((2-azabicyclo[2.1.1]hexan-2-yl)methyl)-7-(5-fluoro-2-(((3S,4R)-3-hydroxytetrahydro-2H-pyran-4-yl)amino)pyrimidin-4-yl)-1-isopropylquinolin-4(1H)-one] |
| 22 nM | 682 nM | CC(C)n1c(CN2CC[C@@H](O)C2)cc(=O)c2ccc(-c3nc(N[C@@H]4CCOC[C@H]4O)ncc3F)cc21 [Example 87, 7-(5-fluoro-2-(((3S,4R)-3-hydroxytetrahydro-2H-pyran-4-yl)amino)pyrimidin-4-yl)-2-(((R)-3-hydroxypyrrolidin-1-yl)methyl)-1-isopropylquinolin-4(1H)-one] |
| 11 nM | 396 nM | CC(C)n1c(CN2CCCC(F)(F)C2)cc(=O)c2ccc(-c3nc(N[C@@H]4CCOC[C@H]4O)ncc3F)cc21 [Example 70, 2-((3,3-difluoropiperidin-1-yl)methyl)-7-(5-fluoro-2-(((3S,4R)-3-hydroxytetrahydro-2H-pyran-4-yl)amino)pyrimidin-4-yl)-1-isopropylquinolin-4(1H)-one] |
| 21 nM | 651 nM | CC(C)n1c(CN2C[C@@H](F)[C@@H](O)C2)cc(=O)c2ccc(-c3nc(N[C@@H]4CCOC[C@H]4O)ncc3F)cc21 [Example 45, 7-(5-fluoro-2-(((3S,4R)-3-hydroxytetrahydro-2H-pyran-4-yl)amino)pyrimidin-4-yl)-2-(((3R,4S)-3-fluoro-4-hydroxypyrrolidin-1-yl)methyl)-1-isopropylquinolin-4(1H)-one] |
| 162 nM | 1780 nM | COc1cn(C(C)C)c2cc(-c3nc(N[C@@H]4CCOC[C@H]4O)ncc3F)ccc2c1=O [Example 8, 7-(5-fluoro-2-(((3S,4R)-3-hydroxytetrahydro-2H-pyran-4-yl)amino)pyrimidin-4-yl)-1-isopropyl-3-methoxyquinolin-4(11H)-one] |
| 4.7 nM | 113 nM | Cc1c(CN2CCC(F)(F)CC2)n(C(C)C)c2cc(-c3nc(N[C@@H]4CCOC[C@H]4O)ncc3F)ccc2c1=O [Example 121, 2-((4,4-difluoropiperidin-1-yl)methyl)-7-(5-fluoro-2-(((3S,4R)-3-hydroxytetrahydro-2H-pyran-4-yl)amino)pyrimidin-4-yl)-1-isopropyl-3-methylquinolin-4(1H)-one] |
| 249 nM | 3240 nM | CC(C)n1cc(C(C)(C)O)c(=O)c2ccc(-c3nc(N[C@@H]4CCOC[C@H]4O)ncc3F)cc21 [Example 5, 7-(5-fluoro-2-(((3S,4R)-3-hydroxytetrahydro-2H-pyran-4-yl)amino)pyrimidin-4-yl)-3-(2-hydroxypropan-2-yl)-1-isopropylquinolin-4(1H)-one] |
| 12 nM | 516 nM | Cc1c(CN2CCC(C)(O)CC2)n(C(C)C)c2cc(-c3nc(N[C@@H]4CCOC[C@H]4O)ncc3F)ccc2c1=O [Example 103, 7-(5-fluoro-2-(((3S,4R)-3-hydroxytetrahydro-2H-pyran-4-yl)amino)pyrimidin-4-yl)-2-((4-hydroxy-4-methylpiperidin-1-yl)methyl)-1-isopropyl-3-methylquinolin-4(1H)-one] |
| 22 nM | 682 nM | CC(C)n1c(CN2CCC(C#N)CC2)cc(=O)c2ccc(-c3nc(N[C@@H]4CCOC[C@H]4O)ncc3F)cc21 [Example 37, 1-((7-(5-fluoro-2-(((3S,4R)-3-hydroxytetrahydro-2H-pyran-4-yl)amino)pyrimidin-4-yl)-1-isopropyl-4-oxo-1,4-dihydroquinolin-2-yl)methyl)piperidine-4-carbonitrile] |
| 258 nM | 1930 nM | CC(C)n1cc(Cl)c(=O)c2ccc(-c3nc(N[C@@H]4CCOC[C@H]4O)ncc3F)cc21 [Example 12, 3-chloro-7-(5-fluoro-2-(((3S,4R)-3-hydroxytetrahydro-2H-pyran-4-yl)amino)pyrimidin-4-yl)-1-isopropylquinolin-4(1H)-one] |
| 3.4 nM | 78.2 nM | Cc1c(CN2CCOCC2)n(C(C)C)c2cc(-c3nc(N[C@@H]4CCOC[C@H]4O)ncc3F)ccc2c1=O [Example 58, 7-(5-fluoro-2-(((3S,4R)-3-hydroxytetrahydro-2H-pyran-4-yl)amino)pyrimidin-4-yl)-1-isopropyl-3-methyl-2-(morpholinomethyl)quinolin-4(1H)-one] |
| 8.8 nM | 150 nM | Cc1c(C2CC2)c(=O)c2ccc(-c3nc(N[C@@H]4CCOC[C@H]4O)ncc3F)cc2n1C(C)C [Example 40, 3-cyclopropyl-7-(5-fluoro-2-(((3S,4R)-3-hydroxytetrahydro-2H-pyran-4-yl)amino)pyrimidin-4-yl)-1-isopropyl-2-methylquinolin-4(1H)-one] |
| 16 nM | 352 nM | CC(C)n1c(CN2CCC[C@@H](O)C2)cc(=O)c2ccc(-c3nc(N[C@@H]4CCOC[C@H]4O)ncc3F)cc21 [Example 57, 7-(5-fluoro-2-(((3S,4R)-3-hydroxytetrahydro-2H-pyran-4-yl)amino)pyrimidin-4-yl)-2-(((R)-3-hydroxypiperidin-1-yl)methyl)-1-isopropylquinolin-4(1H)-one] |
| 22 nM | 638 nM | CC(C)n1c(CN[C@H]2CCCOC2)cc(=O)c2ccc(-c3nc(N[C@@H]4CCOC[C@H]4O)ncc3F)cc21 [Example 60, 7-(5-fluoro-2-(((3S,4R)-3-hydroxytetrahydro-2H-pyran-4-yl)amino)pyrimidin-4-yl)-1-isopropyl-2-((((S)-tetrahydro-2H-pyran-3-yl)amino)methyl)quinolin-4(1H)-one] |
| 8.3 nM | 299 nM | CC(C)n1c(CN2CC[C@@H](F)C2)cc(=O)c2ccc(-c3nc(N[C@@H]4CCOC[C@H]4O)ncc3F)cc21 [Example 49, 7-(5-fluoro-2-(((3S,4R)-3-hydroxytetrahydro-2H-pyran-4-yl)amino)pyrimidin-4-yl)-2-(((R)-3-fluoropyrrolidin-1-yl)methyl)-1-isopropylquinolin-4(1H)-one] |
| 7.5 nM | 120 nM | CC(C)n1c(CO)cc(=O)c2ccc(-c3nc(N[C@@H]4CCOC[C@H]4O)ncc3F)cc21 [Example 17, 7-(5-fluoro-2-(((3S,4R)-3-hydroxytetrahydro-2H-pyran-4-yl)amino)pyrimidin-4-yl)-2-(hydroxymethyl)-1-isopropylquinolin-4(1H)-one] |
| 8.3 nM | 257 nM | Cc1c(C)n(C(C)C)c2cc(-c3nc(N[C@@H]4CCOC[C@H]4O)ncc3F)ccc2c1=O [Example 16, 7-(5-fluoro-2-(((3S,4R)-3-hydroxytetrahydro-2H-pyran-4-yl)amino)pyrimidin-4-yl)-1-isopropyl-2,3-dimethylquinolin-4(1H)-one] |
| 10 nM | 450 nM | CC(C)n1c(C2CCCN2)cc(=O)c2ccc(-c3nc(N[C@@H]4CCOC[C@H]4O)ncc3F)cc21 (stereo partly drawn) [Example 388, 7-(5-fluoro-2-(((3S,4R)-3-hydroxytetrahydro-2H-pyran-4-yl)amino)pyrimidin-4-yl)-1-isopropyl-2-(pyrrolidin-2-yl)quinolin-4(1H)-one] |
| 5.1 nM | 237 nM | Cc1c(C2CCN2C)n(C(C)C)c2cc(-c3nc(N[C@@H]4CCOC[C@H]4O)ncc3F)ccc2c1=O (stereo partly drawn) [Example 387, 7-(5-fluoro-2-(((3S,4R)-3-hydroxytetrahydro-2H-pyran-4-yl)amino)pyrimidin-4-yl)-1-isopropyl-3-methyl-2-(1-methylazetidin-2-yl)quinolin-4(1H)-one] |
| 4.1 nM | 291 nM | CC(C)n1c(CN2CCC[C@]3(CCNC3=O)C2)cc(=O)c2ccc(-c3nc(N[C@@H]4CCOC[C@H]4O)ncc3F)cc21 [Example 105, (S)-7-((7-(5-fluoro-2-(((3S,4R)-3-hydroxytetrahydro-2H-pyran-4-yl)amino)pyrimidin-4-yl)-1-isopropyl-4-oxo-1,4-dihydroquinolin-2-yl)methyl)-2,7-diazaspiro[4.5]decan-1-one] |
